Assay results reported in ChEMBL document CHEMBL1201862, “PubChem BioAssay data set” (2004).
Active and inactive are the calls of the source.

Key:
[1] = HEK-293T viability loss after treatment – luminescence, T-cell screen hits, cytotoxicity control for TCR NF-kB inhibitor project, dose response (AID 489026); type: functional, cell-based;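 note: cells exposed to compound about 14 hours before the viability readout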
[2] = MIN6 cell viability loss – mouse insulinoma, cytotoxicity control, dose response (AID 2122); type: functional;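 note: confirmatory high-throughput counterscreen run to flag cytotoxic compounds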
[3] = decrease of insulin promoter-GFP reporter – imaging, high-content screening, mouse beta cells (AID 1628); type: functional; details: MIN6
[4] = biological target: Intestinal-type alkaline phosphatase (Mus musculus, UniProt P24822); test: mouse intestinal alkaline phosphatase activators, dose response, biochemical, luminescence, uHTS hits (AID 488783); type: functional
[5] = biological target: T1, Alkaline phosphatase, tissue-nonspecific isozyme (Homo sapiens, UniProt P05186); test: activation of tissue-nonspecific alkaline phosphatase – biochemical, TNAP isozyme, mouse IAP uHTS hits, selectivity assay for mouse IAP activator project, dose response (AID 488880); type: functional
T1 sequence (P05186 whole entry): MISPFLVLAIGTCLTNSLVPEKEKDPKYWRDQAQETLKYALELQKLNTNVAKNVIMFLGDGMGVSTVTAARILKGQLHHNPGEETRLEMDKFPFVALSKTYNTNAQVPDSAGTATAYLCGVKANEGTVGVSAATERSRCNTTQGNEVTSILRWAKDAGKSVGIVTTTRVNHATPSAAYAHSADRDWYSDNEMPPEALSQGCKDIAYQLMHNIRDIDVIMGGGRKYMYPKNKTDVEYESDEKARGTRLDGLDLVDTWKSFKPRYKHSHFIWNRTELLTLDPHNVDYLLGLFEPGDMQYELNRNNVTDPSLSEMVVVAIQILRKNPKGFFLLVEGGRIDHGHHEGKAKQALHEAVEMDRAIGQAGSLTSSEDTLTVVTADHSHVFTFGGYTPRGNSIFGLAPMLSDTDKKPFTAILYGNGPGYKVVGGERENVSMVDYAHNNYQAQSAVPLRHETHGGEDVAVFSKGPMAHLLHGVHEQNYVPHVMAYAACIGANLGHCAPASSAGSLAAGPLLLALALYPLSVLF

[6] = biological target: Intestinal-type alkaline phosphatase (Homo sapiens, UniProt P09923); test: activation of human intestinal alkaline phosphatase – biochemical, dose response (AID 488873); type: functional
[7] = biological target: Lysine-specific demethylase 4C (Homo sapiens, UniProt Q9H3R0); test: inhibition of JMJD2C H3K9me3 demethylation – biochemical, DELFIA europium, cherry-picked samples, dose response (AID 488835); type: functional
[8] = biological target: Genome polyprotein (dengue virus type 2, UniProt P29990); test: flavivirus cap methylation enzyme inhibition – biochemical, confirmation dose response, primary screen (AID 588689); type: functional
[9] = biological target: Induced myeloid leukemia cell differentiation protein Mcl-1 (Homo sapiens, UniProt Q07820); type: functional
[10] = biological target: T2, Aminopeptidase N (Plasmodium falciparum FcB1/Columbia, UniProt O96935); test: malaria alanyl aminopeptidase activity blockers – biochemical, fluorogenic H-Leu-NHMec substrate, 1536-well (AID 1445); set-up: species or system Plasmodium falciparum 3D7, 3D7
T2 sequence (O96935 whole entry): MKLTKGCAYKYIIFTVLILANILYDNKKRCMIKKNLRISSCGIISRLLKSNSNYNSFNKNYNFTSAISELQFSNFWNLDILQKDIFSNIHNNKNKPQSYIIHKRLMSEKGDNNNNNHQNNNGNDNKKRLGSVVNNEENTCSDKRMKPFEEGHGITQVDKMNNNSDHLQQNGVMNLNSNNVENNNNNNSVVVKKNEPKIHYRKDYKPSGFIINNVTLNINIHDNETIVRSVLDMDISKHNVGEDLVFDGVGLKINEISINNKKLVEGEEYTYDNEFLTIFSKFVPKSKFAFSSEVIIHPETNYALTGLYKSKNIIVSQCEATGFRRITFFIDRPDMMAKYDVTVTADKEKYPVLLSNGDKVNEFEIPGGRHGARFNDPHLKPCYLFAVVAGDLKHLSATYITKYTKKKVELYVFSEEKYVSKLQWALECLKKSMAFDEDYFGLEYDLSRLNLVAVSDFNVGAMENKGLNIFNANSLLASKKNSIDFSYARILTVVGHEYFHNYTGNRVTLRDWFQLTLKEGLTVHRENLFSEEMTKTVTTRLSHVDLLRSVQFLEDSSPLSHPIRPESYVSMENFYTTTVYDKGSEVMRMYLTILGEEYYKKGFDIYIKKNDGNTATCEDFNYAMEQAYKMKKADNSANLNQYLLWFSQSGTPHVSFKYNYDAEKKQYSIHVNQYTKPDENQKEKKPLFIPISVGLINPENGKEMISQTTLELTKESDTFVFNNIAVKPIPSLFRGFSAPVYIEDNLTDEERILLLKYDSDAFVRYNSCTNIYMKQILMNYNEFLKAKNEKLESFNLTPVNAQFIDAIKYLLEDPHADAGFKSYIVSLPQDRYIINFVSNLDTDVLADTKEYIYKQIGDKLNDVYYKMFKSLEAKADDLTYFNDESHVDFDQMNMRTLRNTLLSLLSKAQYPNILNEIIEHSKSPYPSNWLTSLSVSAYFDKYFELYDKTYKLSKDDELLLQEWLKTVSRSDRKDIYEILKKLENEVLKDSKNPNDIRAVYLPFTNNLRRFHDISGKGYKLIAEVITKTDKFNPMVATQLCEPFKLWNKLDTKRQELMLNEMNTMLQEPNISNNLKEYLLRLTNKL

[11] = biological target: Keap1/Nrf2 (Homo sapiens, UniProt Q14145); test: disruptors of Keap1 binding to Nrf2 peptide – biochemical, fluorescence polarization, cherry-picked samples, dose response (AID 588683)
[12] = biological target: T3, RNA-binding protein pos-1 (Caenorhabditis elegans, UniProt G5EF15); test: disruptors of C. elegans POS-1 RNA interaction – biochemical, fluorescence polarization, dose response (AID 1964);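 note: purified POS-1 fused to maltose binding protein made in E. coli; potency of compounds blocking POS-1 binding to fluorescent RNA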
T3 sequence (G5EF15 whole entry): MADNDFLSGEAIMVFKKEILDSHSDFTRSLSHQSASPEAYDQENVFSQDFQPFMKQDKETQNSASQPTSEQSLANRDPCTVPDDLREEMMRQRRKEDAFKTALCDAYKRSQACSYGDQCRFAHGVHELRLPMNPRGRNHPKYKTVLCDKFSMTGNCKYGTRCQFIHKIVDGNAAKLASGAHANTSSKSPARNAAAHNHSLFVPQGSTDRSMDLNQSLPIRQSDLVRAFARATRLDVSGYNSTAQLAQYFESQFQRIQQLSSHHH

[13] = biological target: T4, Zinc finger protein mex-5 (Caenorhabditis elegans, UniProt Q9XUB2); test: potency of MEX-5 RNA-binding blockers – biochemical, C. elegans, fluorescence polarization, dose response (AID 1960)
T4 sequence (Q9XUB2 whole entry): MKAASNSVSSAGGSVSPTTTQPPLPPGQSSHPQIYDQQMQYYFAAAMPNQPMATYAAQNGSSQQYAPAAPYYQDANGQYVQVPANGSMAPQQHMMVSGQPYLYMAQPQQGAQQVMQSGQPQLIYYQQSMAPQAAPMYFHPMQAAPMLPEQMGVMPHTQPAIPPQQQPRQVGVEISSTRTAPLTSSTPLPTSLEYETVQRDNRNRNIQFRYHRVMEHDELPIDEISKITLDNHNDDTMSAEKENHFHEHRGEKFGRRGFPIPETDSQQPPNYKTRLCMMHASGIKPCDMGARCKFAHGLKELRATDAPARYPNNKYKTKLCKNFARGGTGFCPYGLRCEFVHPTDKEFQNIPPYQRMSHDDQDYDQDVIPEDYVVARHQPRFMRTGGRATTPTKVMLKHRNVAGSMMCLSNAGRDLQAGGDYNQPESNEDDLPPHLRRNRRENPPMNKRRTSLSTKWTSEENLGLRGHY

Chain of Intestinal-type alkaline phosphatase (Mus musculus, UniProt P24822) (P24822 whole entry): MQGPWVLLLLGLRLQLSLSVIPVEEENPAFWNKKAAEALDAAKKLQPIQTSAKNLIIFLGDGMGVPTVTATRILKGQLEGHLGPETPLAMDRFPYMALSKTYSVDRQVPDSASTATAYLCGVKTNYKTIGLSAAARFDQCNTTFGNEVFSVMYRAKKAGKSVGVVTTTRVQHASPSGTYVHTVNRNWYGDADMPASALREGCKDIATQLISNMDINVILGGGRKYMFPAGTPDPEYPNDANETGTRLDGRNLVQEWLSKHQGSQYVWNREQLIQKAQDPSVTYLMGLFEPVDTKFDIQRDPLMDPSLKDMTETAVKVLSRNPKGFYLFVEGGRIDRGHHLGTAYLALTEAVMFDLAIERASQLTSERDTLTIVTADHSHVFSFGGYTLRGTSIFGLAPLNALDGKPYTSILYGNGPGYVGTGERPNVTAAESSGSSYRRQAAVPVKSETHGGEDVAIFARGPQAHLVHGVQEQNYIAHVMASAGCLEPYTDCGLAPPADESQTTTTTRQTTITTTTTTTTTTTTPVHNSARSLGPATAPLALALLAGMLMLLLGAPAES
Chain of Intestinal-type alkaline phosphatase (Homo sapiens, UniProt P09923) (P09923 whole entry): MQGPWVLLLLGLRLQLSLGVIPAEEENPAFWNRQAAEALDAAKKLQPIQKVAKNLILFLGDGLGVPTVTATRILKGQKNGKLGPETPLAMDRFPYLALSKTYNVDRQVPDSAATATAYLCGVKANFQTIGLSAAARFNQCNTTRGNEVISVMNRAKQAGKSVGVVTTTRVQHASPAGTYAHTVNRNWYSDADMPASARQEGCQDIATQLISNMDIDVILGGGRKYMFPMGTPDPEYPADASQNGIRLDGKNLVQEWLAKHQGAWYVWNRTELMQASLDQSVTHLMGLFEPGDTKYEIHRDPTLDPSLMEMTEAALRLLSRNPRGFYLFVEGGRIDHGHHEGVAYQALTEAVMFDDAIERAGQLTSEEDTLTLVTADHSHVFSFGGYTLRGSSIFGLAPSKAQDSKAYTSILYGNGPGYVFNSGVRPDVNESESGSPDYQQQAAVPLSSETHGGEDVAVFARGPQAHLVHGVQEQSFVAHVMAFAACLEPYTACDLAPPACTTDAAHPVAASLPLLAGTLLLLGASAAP
Chain of Genome polyprotein (P29990 2492-3391 limits assumed): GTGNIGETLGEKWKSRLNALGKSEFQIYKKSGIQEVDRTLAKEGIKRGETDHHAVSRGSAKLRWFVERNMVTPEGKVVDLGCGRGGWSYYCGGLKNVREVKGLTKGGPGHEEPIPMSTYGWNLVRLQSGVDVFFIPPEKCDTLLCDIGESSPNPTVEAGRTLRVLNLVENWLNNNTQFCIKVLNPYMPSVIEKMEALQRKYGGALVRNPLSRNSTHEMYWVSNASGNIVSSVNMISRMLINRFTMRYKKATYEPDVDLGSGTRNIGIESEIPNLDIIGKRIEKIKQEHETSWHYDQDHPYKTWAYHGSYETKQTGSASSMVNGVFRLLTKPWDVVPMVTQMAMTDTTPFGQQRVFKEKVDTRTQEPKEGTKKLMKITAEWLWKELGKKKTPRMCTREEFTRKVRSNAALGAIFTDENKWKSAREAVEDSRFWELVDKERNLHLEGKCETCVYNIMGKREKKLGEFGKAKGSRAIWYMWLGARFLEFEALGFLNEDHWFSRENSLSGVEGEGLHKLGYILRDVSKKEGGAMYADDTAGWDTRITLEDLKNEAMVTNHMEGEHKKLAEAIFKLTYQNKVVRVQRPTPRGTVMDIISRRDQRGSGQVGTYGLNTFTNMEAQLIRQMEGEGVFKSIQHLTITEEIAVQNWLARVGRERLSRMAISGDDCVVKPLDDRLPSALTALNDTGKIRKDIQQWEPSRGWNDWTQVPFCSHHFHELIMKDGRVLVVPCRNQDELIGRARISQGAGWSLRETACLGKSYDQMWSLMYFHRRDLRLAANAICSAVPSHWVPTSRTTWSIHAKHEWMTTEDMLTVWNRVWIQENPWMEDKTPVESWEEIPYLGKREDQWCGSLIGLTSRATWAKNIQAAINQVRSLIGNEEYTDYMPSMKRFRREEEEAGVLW
Chain of Keap1/Nrf2 (Q16236 whole entry, the tested form may be a part): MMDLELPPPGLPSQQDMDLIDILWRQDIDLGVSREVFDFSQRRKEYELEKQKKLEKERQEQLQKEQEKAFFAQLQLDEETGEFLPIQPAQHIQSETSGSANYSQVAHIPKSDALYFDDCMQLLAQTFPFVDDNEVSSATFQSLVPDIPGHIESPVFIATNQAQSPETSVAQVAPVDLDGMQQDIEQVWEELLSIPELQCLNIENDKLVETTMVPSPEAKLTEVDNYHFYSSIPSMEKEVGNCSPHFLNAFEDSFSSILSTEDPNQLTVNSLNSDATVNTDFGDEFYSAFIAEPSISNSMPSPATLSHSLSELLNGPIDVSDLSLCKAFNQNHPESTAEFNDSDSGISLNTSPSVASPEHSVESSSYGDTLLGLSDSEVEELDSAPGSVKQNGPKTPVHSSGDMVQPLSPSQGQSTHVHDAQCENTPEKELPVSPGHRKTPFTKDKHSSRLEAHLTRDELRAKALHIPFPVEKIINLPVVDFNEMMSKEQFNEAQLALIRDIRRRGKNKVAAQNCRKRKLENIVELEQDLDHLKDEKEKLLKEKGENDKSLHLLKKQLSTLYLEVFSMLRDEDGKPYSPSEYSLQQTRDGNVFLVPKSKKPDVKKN
Chain of Keap1/Nrf2 (Q14145 whole entry, the tested form may be a part): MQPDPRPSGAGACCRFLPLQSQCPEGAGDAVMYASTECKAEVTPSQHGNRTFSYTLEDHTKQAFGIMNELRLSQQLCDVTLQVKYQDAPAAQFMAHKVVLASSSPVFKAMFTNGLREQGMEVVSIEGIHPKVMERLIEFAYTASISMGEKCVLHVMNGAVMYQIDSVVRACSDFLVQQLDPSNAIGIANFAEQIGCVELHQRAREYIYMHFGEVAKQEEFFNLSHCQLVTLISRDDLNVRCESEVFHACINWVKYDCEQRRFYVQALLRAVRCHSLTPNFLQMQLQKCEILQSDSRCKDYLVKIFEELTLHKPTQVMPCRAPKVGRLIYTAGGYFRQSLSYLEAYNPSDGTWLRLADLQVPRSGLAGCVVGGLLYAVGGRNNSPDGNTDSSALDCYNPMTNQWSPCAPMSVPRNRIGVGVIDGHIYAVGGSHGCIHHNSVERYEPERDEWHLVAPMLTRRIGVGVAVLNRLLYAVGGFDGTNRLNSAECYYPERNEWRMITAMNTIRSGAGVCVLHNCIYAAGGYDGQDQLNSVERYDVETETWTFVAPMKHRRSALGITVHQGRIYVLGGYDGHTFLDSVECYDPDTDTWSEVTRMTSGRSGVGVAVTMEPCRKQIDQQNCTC
Chain of Induced myeloid leukemia cell differentiation protein Mcl-1 (Q07820 whole entry): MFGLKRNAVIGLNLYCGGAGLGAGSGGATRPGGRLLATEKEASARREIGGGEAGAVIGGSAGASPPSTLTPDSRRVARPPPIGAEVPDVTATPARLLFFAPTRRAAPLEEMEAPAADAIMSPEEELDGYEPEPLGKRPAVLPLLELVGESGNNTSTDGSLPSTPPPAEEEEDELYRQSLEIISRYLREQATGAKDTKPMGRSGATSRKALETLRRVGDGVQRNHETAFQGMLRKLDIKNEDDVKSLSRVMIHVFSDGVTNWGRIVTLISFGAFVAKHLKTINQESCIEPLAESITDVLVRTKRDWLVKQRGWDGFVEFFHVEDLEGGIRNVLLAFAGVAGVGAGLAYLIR
Chain of Lysine-specific demethylase 4C (Q9H3R0 whole entry): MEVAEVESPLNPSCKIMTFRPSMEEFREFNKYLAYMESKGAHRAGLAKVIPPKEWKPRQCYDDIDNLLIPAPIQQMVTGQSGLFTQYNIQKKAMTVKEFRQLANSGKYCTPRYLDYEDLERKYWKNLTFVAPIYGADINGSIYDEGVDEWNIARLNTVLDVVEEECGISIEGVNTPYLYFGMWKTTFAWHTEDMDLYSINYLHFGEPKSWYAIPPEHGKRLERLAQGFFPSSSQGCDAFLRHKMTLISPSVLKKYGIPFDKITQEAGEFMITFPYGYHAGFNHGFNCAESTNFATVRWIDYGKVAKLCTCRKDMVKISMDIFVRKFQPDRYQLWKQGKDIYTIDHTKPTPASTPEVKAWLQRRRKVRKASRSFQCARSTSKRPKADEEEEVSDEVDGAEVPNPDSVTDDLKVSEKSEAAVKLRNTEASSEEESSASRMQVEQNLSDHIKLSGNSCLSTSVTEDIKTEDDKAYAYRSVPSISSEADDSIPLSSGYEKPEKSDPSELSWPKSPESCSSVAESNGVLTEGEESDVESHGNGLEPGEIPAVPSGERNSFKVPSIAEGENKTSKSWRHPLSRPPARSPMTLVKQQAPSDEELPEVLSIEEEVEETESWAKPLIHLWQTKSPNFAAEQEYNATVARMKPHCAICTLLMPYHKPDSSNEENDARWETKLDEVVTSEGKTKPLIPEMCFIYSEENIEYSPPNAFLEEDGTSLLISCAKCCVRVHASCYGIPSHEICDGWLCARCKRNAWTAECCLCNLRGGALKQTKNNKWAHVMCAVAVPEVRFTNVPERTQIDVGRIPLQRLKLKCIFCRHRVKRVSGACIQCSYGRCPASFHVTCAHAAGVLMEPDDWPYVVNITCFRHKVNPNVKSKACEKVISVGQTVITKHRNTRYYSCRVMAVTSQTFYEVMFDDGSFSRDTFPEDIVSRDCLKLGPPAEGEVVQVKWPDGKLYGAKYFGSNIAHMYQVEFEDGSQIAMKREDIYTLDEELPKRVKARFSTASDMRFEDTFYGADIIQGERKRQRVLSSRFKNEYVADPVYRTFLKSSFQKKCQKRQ

Compound: COc1ccc(Br)cc1/C(C)=N/NC1=NCCN1
- IC50 [1]: > 80 µM (inactive)
- IC50 [2]: 3.47 µM (active)
- IC50 [3]: 4.74 µM (active)

Compound: Cc1cc(C)c(S(=O)(=O)Nc2ccc(O)c(Sc3nnc[nH]3)c2)cc1C
- EC50 [4]: 24.7 µM (active)
- EC50 [5]: 42.4 µM (active)
- EC50 [6]: 22.5 µM (active)

Compound: COc1ccc(/C=N/Nc2cc(=O)n(C)c(=O)n2C)cc1OC
- AC50 [7]: 7.21 µM (active)

Compound: O=C1Nc2ccc(Br)cc2/C1=C1/SC(=S)N(NS(=O)(=O)c2ccccc2)C1=O
- IC50 [8]: 23.6 µM (active)
- IC50 [9]: 3 µM (not active)
- IC50 [10]: < 1 µM (active)
- AC50 [11]: 12.2 µM (active)

Compound: Cc1ccc(N2C(=O)/C(=C/c3ccc(CN(CCC#N)S(C)(=O)=O)o3)C(=O)NC2=S)cc1
- EC50 [4]: 80.5 µM (active)
- EC50 [12]: > 300 µM (not active)
- EC50 [5]: 40.4 µM (active)
- EC50 [6]: 36.2 µM (active)
- EC50 [13]: 37.8 µM (active)
